Columns and labels:
Format in all cases: physicochemical
[1] = Hygroscopicity test by dynamic moisture sorption (DVS); details: for adsorbed moisture: 80% RH, 25° C., DVS
Description: DVS analysis: all dynamic moisture sorption analysis […] of this experiment were determined by DVS advantage model sorption instrument, British SMS company, relative humidity range: 0-95%, temperature: 25° C. Commercially available paeoniflorin (Aladdin Company, batch number K2011169, purity ≥98%) was used as the amorphous powder, and its X-ray powder diffraction comparison diagram with the crystal form A of the present invention is shown in FIG. 6, and the hygroscopicity analysis comparison diagram of paeoniflorin and the crystal form A of the present invention is shown in FIG. 7. […] The hygroscopicity of crystal form B was analyzed using DVS advantage adsorption instrument of SMS company in the UK, the amorphous form adsorbed 11.1% of water at 80% RH, showing hygroscopicity; Paeoniflorin crystal form B of the present invention adsorbed 2.22% of water at 80% RH, but its hygroscopicity was obviously different from that of crystal form A.

[2] = Thermal stability by TG and DSC
Description: DSC analysis: the method adopts a DSC 8500 model differential scanning calorimeter of PerkinElmer company, US. for detection, the atmosphere is nitrogen, and the heating speed is 10° C./min.
TG analysis: the method adopts a thermogravimetric analyzer Netzsch TG 209F3 model of German […] company, temperature range: 30-400° C., scan rate: 10° C./min, purge gas: 25 mL/min.

[3] = Accelerated stability in a stability box (40° C./75% RH); details: 15 days acceleration
Solubility in water = experiment: Solubility in water
Description: The crystal form A has good water solubility, the solubility in water is more than 20 mg/mL, and the crystal form A is easy to dissolve.

| adsorbed moisture [1] | phase transition and weight loss temperatures [2] | adsorbed moisture ([1]; listed as paeoniflorin monohydrate crystal form A) | hygroscopicity (qualitative) ([1]; no wet agglomeration, powder has good fluidity) | solubility (Solubility in water) | SMILES | physical stability (conversion to amorphous or other forms) [3] |
| --- | --- | --- | --- | --- | --- | --- |
| 2.22% |  |  |  |  | CC12CC3(O)OC(O1)C1(COC(=O)c4ccccc4)C3CC21OC1OC(CO)C(O)C(O)C1O (stereo not shown) [Paeoniflorin crystal form B] |  |
| 11.1% |  |  |  |  | CC12CC3(O)OC(O1)C1(COC(=O)c4ccccc4)C3CC21OC1OC(CO)C(O)C(O)C1O (stereo not shown) [amorphous form, reference compound] |  |
|  | above 100 °C | 0.3% | small hygroscopicity | > 20 mg/mL | CC12CC3(O)OC(O1)C1(COC(=O)c4ccccc4)C3CC21OC1OC(CO)C(O)C(O)C1O (stereo not shown) [crystal form A] | did not convert to amorphous or other forms |
